Several values for one entry are separate records, joined by “and”; a condition that tells them apart may be missing. Identical values can stand only once.
Columns and labels:
[1] = molecular target: T1, soluble epoxide hydrolase (sEH) (Homo sapiens, UniProt P34913); assay: sEH assay (PHOME substrate, fluorescence); assay type: biochemical; details: triplicated experiments; 37 °C, pH 7.0, PHOME substrate; read-out: IC50 Value, inhibitory activity on sEH
T1 construct: purchased Cayman (Ann Arbor, MI, USA) 10011669
T1 sequence (P34913 1-555): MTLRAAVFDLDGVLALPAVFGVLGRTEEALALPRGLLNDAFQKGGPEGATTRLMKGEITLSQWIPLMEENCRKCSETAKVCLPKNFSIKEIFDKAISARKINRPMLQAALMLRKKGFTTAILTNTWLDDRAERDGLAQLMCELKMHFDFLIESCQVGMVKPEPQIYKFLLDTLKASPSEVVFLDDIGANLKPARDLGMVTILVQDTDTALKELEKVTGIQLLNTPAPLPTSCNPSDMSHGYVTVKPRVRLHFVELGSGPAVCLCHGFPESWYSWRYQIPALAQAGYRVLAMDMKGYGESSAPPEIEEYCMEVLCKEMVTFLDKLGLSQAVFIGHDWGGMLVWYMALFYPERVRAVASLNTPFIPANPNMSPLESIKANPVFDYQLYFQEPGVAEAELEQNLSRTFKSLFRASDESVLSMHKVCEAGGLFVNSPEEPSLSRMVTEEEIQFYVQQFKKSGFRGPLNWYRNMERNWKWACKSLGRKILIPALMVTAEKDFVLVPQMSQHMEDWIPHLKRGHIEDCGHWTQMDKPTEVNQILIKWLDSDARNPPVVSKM
Experimental: The inhibitory activity of each concentration of compound was calculated based on the difference in enzyme products with and without the presence of the compound using Equation (1). […] To calculate the half-maximal inhibitory concentration of the inhibitors (IC50), inhibition rate values were fitted using Equation (2).
(§1) The assays were carried out at 37 °C in 0.025-M bis-tris-HCL buffer, pH 7.0, containing 0.1% Bovine Serum Albumin B. PHOME (~2.6 μM) was used as a substrate. The final volume of tests was […] in ~10 ng/mL sEH. The products were monitored at 330 nm of excitation and 465 nm emission for 40 min.
The inhibition rate was calculated according to the following equations:Inhibition effect rate (%) = [(ΔC − ΔS)/ΔC] × 100(1) where ΔC and ΔS represent the gap of control and inhibitor during reaction, respectively. y = y0 + [(a × x)/(b + x)](2) where “y0” is the point on the axis of ordinates, “a” denotes the difference between the maximum and minimum values, and “b” refers to the “x” value at 50%.

[2] = molecular target: T1, soluble epoxide hydrolase (sEH); assay: sEH enzyme kinetic study (Lineweaver-Burk and Dixon plots); assay type: biochemical; details: for Ki: Dixon plots, read-out: ki (inhibition constant); for Binding Mode: Lineweaver-Burk plots
Experimental: The enzyme kinetic study was performed to find the binding position of the inhibitor into sEH. The initial velocity (v0) for the three different concentrations of inhibitors was calculated relative to the substrate concentrations (1.1, 1.5, 2.2, 3.1, 6.2, and 12.5 μM). The inverse of these concentrations and v0 values were used to construct Lineweaver-Burk plots.
As presented in Figure 2F–I and Table 1, the inhibition constant (ki) values were calculated by Dixon plots. Inhibitors 1–4 were calculated to be ki values ranging from 2.9 ± 0.8 μM to […]. Among them, inhibitor 4 had the strongest ki value of 2.9 ± 0.8 μM.
as §1

[3] = design: method as in PMID 19794443; details: cited from earlier work

Row | SMILES | IC50 [1] | Ki [2] [µM] | Binding Mode [2] | solubility [3]
1 | O=c1c(OC2O[C@H](CO)[C@@H](O)[C@@H]2O)c(-c2ccc(O)c(O)c2)oc2cc(O)cc(O)c12 (stereo in doubt) [Compound 1, quercetin 3-O-arabinofuranoside] | < 50 µM and 39.3 µM | 39.5 | Mixed | 
2 | O=C(O)CCCCCCCCCCCNC(=O)NC12CC3CC(CC(C3)C1)C2 [AUDA, 12-(3-adamantan-1-yl-ureido)dodecanoic acid] |  |  |  | low solubility

More lines, in order of falling Ki [2], values ahead:

Row | IC50 [1] | Ki [2] [µM] | Binding Mode [2] | SMILES | solubility [3]
3 | 84.5 ± 9.5 µM | 38.5 | Noncompetitive | C[C@H]1[C@H](C)CC[C@]2(C(=O)O)CC[C@]3(C)C(=CC[C@@H]4[C@@]5(C)CC[C@H](O)C(C)(C)[C@@H]5CC[C@]43C)[C@H]12 [Compound 2, ursolic acid] | 
4 | 51.3 ± 4.9 µM | 34.6 | Noncompetitive | C[C@H]1[C@H](C)CC[C@]2(C(=O)O)CC[C@]3(C)C(=CC[C@@H]4[C@@]5(C)C[C@@H](O)[C@H](O)C(C)(C)[C@@H]5CC[C@]43C)[C@H]12 [Compound 3, corosolic acid] | 
5 | < 50 µM and 11.4 µM | 2.9 | Noncompetitive | C[C@@H]1CC[C@]2(C(=O)O)CC[C@]3(C)C(=CC[C@@H]4[C@@]5(C)CC(=O)[C@H](O)C(C)(C)[C@@H]5CC[C@]43C)[C@@H]2[C@]1(C)O [Compound 4, 2-oxopomolic acid] | 
